Measured values published in PubChem BioAssay (NCI).
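Briefly, cells in 96-well plates were exposed to five compound concentrations for 48 h, and endpoints were estimated by linear interpolation. TGI is the concentration that stops growth completely.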

What was measured:
Assay in all cases: NCI-60 cell line screen, 48 h
MALME-3M melanoma = system: MALME-3M melanoma
SNB-19 CNS = system: SNB-19 CNS
HS 578T breast = system: HS 578T breast
A549 NSCLC = system: A549 NSCLC
HT29 colon = system: HT29 colon
NCI-H226 lung = system: NCI-H226 lung
SW-620 colon = system: SW-620 colon
SK-MEL-5 melanoma = system: SK-MEL-5 melanoma
SK-OV-3 ovarian = system: SK-OV-3 ovarian
SF-295 CNS = system: SF-295 CNS
RXF 393 renal = system: RXF 393 renal
HCT-116 colon = system: HCT-116 colon
HCT-15 colon = system: HCT-15 colon
K-562 leukemia = system: K-562 leukemia
TK-10 renal = system: TK-10 renal
CCRF-CEM leukemia = system: CCRF-CEM leukemia
MDA-N = system: MDA-N
SK-MEL-2 melanoma = system: SK-MEL-2 melanoma
MOLT-4 leukemia = system: MOLT-4 leukemia
COLO 205 colon = system: COLO 205 colon
ACHN renal = system: ACHN renal
NCI-H460 lung = system: NCI-H460 lung
OVCAR-4 ovarian = system: OVCAR-4 ovarian
UO-31 renal = system: UO-31 renal
U251 CNS = system: U251 CNS
UACC-257 melanoma = system: UACC-257 melanoma
OVCAR-8 ovarian = system: OVCAR-8 ovarian
KM12 colon = system: KM12 colon
EKVX NSCLC = system: EKVX NSCLC
SR leukemia = system: SR leukemia
786-0 renal = system: 786-0 renal
IGROV1 ovarian = system: IGROV1 ovarian
HCC-2998 colon = system: HCC-2998 colon
MDA-MB-231 breast = system: MDA-MB-231 breast
RPMI-8226 leukemia = system: RPMI-8226 leukemia
NCI-H23 lung = system: NCI-H23 lung
UACC-62 melanoma = system: UACC-62 melanoma
OVCAR-3 ovarian = system: OVCAR-3 ovarian
SF-268 CNS = system: SF-268 CNS
A498 renal = system: A498 renal
SN12C renal = system: SN12C renal
SNB-75 CNS = system: SNB-75 CNS
M14 melanoma = system: M14 melanoma
DU-145 prostate = system: DU-145 prostate
T-47D breast = system: T-47D breast
MCF7 breast = system: MCF7 breast
HL-60(TB) leukemia = system: HL-60(TB) leukemia
NCI/ADR-RES ovarian = system: NCI/ADR-RES ovarian
SK-MEL-28 melanoma = system: SK-MEL-28 melanoma
PC-3 prostate = system: PC-3 prostate
CAKI-1 renal = system: CAKI-1 renal
NCI-H522 lung = system: NCI-H522 lung
LOX IMVI melanoma = system: LOX IMVI melanoma
HOP-62 NSCLC = system: HOP-62 NSCLC
HOP-92 NSCLC = system: HOP-92 NSCLC
MDA-MB-435 = system: MDA-MB-435
SF-539 CNS = system: SF-539 CNS
OVCAR-5 ovarian = system: OVCAR-5 ovarian
BT-549 breast = system: BT-549 breast

Structure (SMILES): C/C(CC(O)(C(F)(F)F)C(F)(F)F)=N/Nc1ccc([N+](=O)[O-])cc1[N+](=O)[O-]
- TGI (MALME-3M melanoma): > 10 µM
- TGI (SNB-19 CNS): > 10 µM
- TGI (HS 578T breast): 7.85 µM
- TGI (A549 NSCLC): > 10 µM
- TGI (HT29 colon): > 10 µM
- TGI (NCI-H226 lung): 6.66 µM
- TGI (SW-620 colon): > 10 µM
- TGI (SK-MEL-5 melanoma): 4 µM
- TGI (SK-OV-3 ovarian): 6.3 µM
- TGI (SF-295 CNS): > 10 µM
- TGI (RXF 393 renal): 7.53 µM
- TGI (HCT-116 colon): 4.56 µM
- TGI (HCT-15 colon): > 10 µM
- TGI (K-562 leukemia): 9.56 µM
- TGI (TK-10 renal): > 10 µM
- TGI (CCRF-CEM leukemia): > 10 µM
- TGI (MDA-N): > 10 µM
- TGI (SK-MEL-2 melanoma): 6.11 µM
- TGI (MOLT-4 leukemia): > 10 µM
- TGI (COLO 205 colon): 3.85 µM
- TGI (ACHN renal): > 10 µM
- TGI (NCI-H460 lung): > 10 µM
- TGI (OVCAR-4 ovarian): > 10 µM
- TGI (UO-31 renal): > 10 µM
- TGI (U251 CNS): > 10 µM
- TGI (UACC-257 melanoma): > 10 µM
- TGI (OVCAR-8 ovarian): > 10 µM
- TGI (KM12 colon): > 10 µM
- TGI (EKVX NSCLC): > 10 µM
- TGI (SR leukemia): > 10 µM
- TGI (786-0 renal): > 10 µM
- TGI (IGROV1 ovarian): > 10 µM
- TGI (HCC-2998 colon): > 10 µM
- TGI (MDA-MB-231 breast): 6.58 µM
- TGI (RPMI-8226 leukemia): 5.91 µM
- TGI (NCI-H23 lung): 7.27 µM
- TGI (UACC-62 melanoma): > 10 µM
- TGI (OVCAR-3 ovarian): 8.33 µM
- TGI (SF-268 CNS): > 10 µM
- TGI (A498 renal): 8.37 µM
- TGI (SN12C renal): > 10 µM
- TGI (SNB-75 CNS): > 10 µM
- TGI (M14 melanoma): > 10 µM
- TGI (DU-145 prostate): > 10 µM
- TGI (T-47D breast): 8.37 µM
- TGI (MCF7 breast): > 10 µM
- TGI (HL-60(TB) leukemia): 7.94 µM
- TGI (NCI/ADR-RES ovarian): > 10 µM
- TGI (SK-MEL-28 melanoma): > 10 µM
- TGI (PC-3 prostate): > 10 µM
- TGI (CAKI-1 renal): > 10 µM
- TGI (NCI-H522 lung): > 10 µM
- TGI (LOX IMVI melanoma): > 10 µM
- TGI (HOP-62 NSCLC): 9.15 µM
- TGI (HOP-92 NSCLC): 4.7 µM
- TGI (MDA-MB-435): > 10 µM
- TGI (SF-539 CNS): > 10 µM

Structure (SMILES): CC(C)=C=CC(C)(C)NS(=O)(=O)NC(C)(C)C=C=C(C)C
- TGI (MALME-3M melanoma): > 100 µM
- TGI (SNB-19 CNS): > 100 µM
- TGI (HS 578T breast): > 100 µM
- TGI (A549 NSCLC): > 100 µM
- TGI (HT29 colon): > 100 µM
- TGI (NCI-H226 lung): > 100 µM
- TGI (SW-620 colon): > 100 µM
- TGI (SK-MEL-5 melanoma): > 100 µM
- TGI (SK-OV-3 ovarian): > 100 µM
- TGI (SF-295 CNS): > 100 µM
- TGI (HCT-116 colon): > 100 µM
- TGI (HCT-15 colon): > 100 µM
- TGI (K-562 leukemia): > 100 µM
- TGI (TK-10 renal): > 100 µM
- TGI (MDA-N): > 100 µM
- TGI (SK-MEL-2 melanoma): > 100 µM
- TGI (COLO 205 colon): > 100 µM
- TGI (ACHN renal): > 100 µM
- TGI (NCI-H460 lung): > 100 µM
- TGI (OVCAR-4 ovarian): > 100 µM
- TGI (U251 CNS): > 100 µM
- TGI (UACC-257 melanoma): > 100 µM
- TGI (OVCAR-8 ovarian): > 100 µM
- TGI (KM12 colon): > 100 µM
- TGI (EKVX NSCLC): > 100 µM
- TGI (SR leukemia): > 100 µM
- TGI (786-0 renal): > 100 µM
- TGI (IGROV1 ovarian): > 100 µM
- TGI (HCC-2998 colon): > 100 µM
- TGI (NCI-H23 lung): > 100 µM
- TGI (UACC-62 melanoma): > 100 µM
- TGI (OVCAR-3 ovarian): > 100 µM
- TGI (SF-268 CNS): > 100 µM
- TGI (OVCAR-5 ovarian): > 100 µM
- TGI (A498 renal): > 100 µM
- TGI (SN12C renal): > 100 µM
- TGI (SNB-75 CNS): > 100 µM
- TGI (M14 melanoma): > 100 µM
- TGI (DU-145 prostate): > 100 µM
- TGI (T-47D breast): > 100 µM
- TGI (MCF7 breast): > 100 µM
- TGI (HL-60(TB) leukemia): > 100 µM
- TGI (NCI/ADR-RES ovarian): > 100 µM
- TGI (SK-MEL-28 melanoma): > 100 µM
- TGI (PC-3 prostate): > 100 µM
- TGI (CAKI-1 renal): > 100 µM
- TGI (NCI-H522 lung): > 100 µM
- TGI (LOX IMVI melanoma): > 100 µM
- TGI (HOP-62 NSCLC): > 100 µM
- TGI (HOP-92 NSCLC): > 100 µM
- TGI (MDA-MB-435): > 100 µM
- TGI (SF-539 CNS): > 100 µM

Structure (SMILES): O=Cc1ccc2[nH]c(=O)oc2c1
- TGI (MALME-3M melanoma): > 100 µM
- TGI (SNB-19 CNS): > 100 µM
- TGI (HS 578T breast): > 100 µM
- TGI (HT29 colon): > 100 µM
- TGI (NCI-H226 lung): > 100 µM
- TGI (SW-620 colon): > 100 µM
- TGI (SK-OV-3 ovarian): > 100 µM
- TGI (SF-295 CNS): > 100 µM
- TGI (RXF 393 renal): > 100 µM
- TGI (HCT-116 colon): > 100 µM
- TGI (HCT-15 colon): > 100 µM
- TGI (K-562 leukemia): > 100 µM
- TGI (TK-10 renal): > 100 µM
- TGI (CCRF-CEM leukemia): > 100 µM
- TGI (MDA-N): > 100 µM
- TGI (SK-MEL-2 melanoma): > 100 µM
- TGI (BT-549 breast): > 100 µM
- TGI (MOLT-4 leukemia): > 100 µM
- TGI (COLO 205 colon): > 100 µM
- TGI (ACHN renal): > 100 µM
- TGI (NCI-H460 lung): > 100 µM
- TGI (UO-31 renal): 82.7 µM
- TGI (U251 CNS): > 100 µM
- TGI (UACC-257 melanoma): > 100 µM
- TGI (OVCAR-8 ovarian): > 100 µM
- TGI (KM12 colon): > 100 µM
- TGI (EKVX NSCLC): > 100 µM
- TGI (SR leukemia): > 100 µM
- TGI (786-0 renal): > 100 µM
- TGI (IGROV1 ovarian): > 100 µM
- TGI (MDA-MB-231 breast): > 100 µM
- TGI (RPMI-8226 leukemia): > 100 µM
- TGI (NCI-H23 lung): > 100 µM
- TGI (UACC-62 melanoma): > 100 µM
- TGI (OVCAR-3 ovarian): > 100 µM
- TGI (SF-268 CNS): > 100 µM
- TGI (OVCAR-5 ovarian): > 100 µM
- TGI (A498 renal): > 100 µM
- TGI (SN12C renal): > 100 µM
- TGI (M14 melanoma): > 100 µM
- TGI (DU-145 prostate): > 100 µM
- TGI (MCF7 breast): > 100 µM
- TGI (HL-60(TB) leukemia): > 100 µM
- TGI (NCI/ADR-RES ovarian): > 100 µM
- TGI (SK-MEL-28 melanoma): > 100 µM
- TGI (PC-3 prostate): > 100 µM
- TGI (CAKI-1 renal): > 100 µM
- TGI (LOX IMVI melanoma): > 100 µM
- TGI (HOP-62 NSCLC): > 100 µM
- TGI (MDA-MB-435): > 100 µM
- TGI (SF-539 CNS): > 100 µM

Structure (SMILES): CC(=O)OC[C@]12CCC3[C@@]4(C)CCCC(C)(C)C4CC[C@@]3(C)C1CC(C1=CC(=O)OC1O)O2 (stereo partly drawn)
- TGI (A549 NSCLC): 5.05 µM
- TGI (SW-620 colon): 1.85 µM
- TGI (SK-MEL-5 melanoma): 2.85 µM
- TGI (SK-OV-3 ovarian): 4.04 µM
- TGI (RXF 393 renal): 1.55 µM
- TGI (HCT-15 colon): 1.98 µM
- TGI (K-562 leukemia): 9.56 µM
- TGI (TK-10 renal): 3.2 µM
- TGI (CCRF-CEM leukemia): 0.982 µM
- TGI (MDA-N): 2.42 µM
- TGI (MOLT-4 leukemia): 0.633 µM
- TGI (COLO 205 colon): 5.67 µM
- TGI (OVCAR-8 ovarian): 3.52 µM
- TGI (KM12 colon): 3.62 µM
- TGI (EKVX NSCLC): 6.51 µM
- TGI (SR leukemia): 0.868 µM
- TGI (786-0 renal): 1.83 µM
- TGI (IGROV1 ovarian): 2.95 µM
- TGI (HCC-2998 colon): 2.83 µM
- TGI (MDA-MB-231 breast): 3.12 µM
- TGI (RPMI-8226 leukemia): 0.761 µM
- TGI (NCI-H23 lung): 3.8 µM
- TGI (UACC-62 melanoma): 3.65 µM
- TGI (SF-268 CNS): 4.88 µM
- TGI (SNB-75 CNS): 3.91 µM
- TGI (M14 melanoma): 3.07 µM
- TGI (T-47D breast): 3.79 µM
- TGI (MCF7 breast): 2.97 µM
- TGI (HL-60(TB) leukemia): 2.66 µM
- TGI (SK-MEL-28 melanoma): 2.19 µM
- TGI (PC-3 prostate): 2.68 µM
- TGI (CAKI-1 renal): 3.11 µM
- TGI (HOP-62 NSCLC): 3.9 µM
